Experimental data as given in patent US10117853B2, “Cyclic amine derivative and pharmaceutical use thereof” (Toray Industries, Inc., priority 2015, dated 2018).
Counter-ions that a name gives are not always drawn.

Legend:
[1] = test system: mouse partial sciatic nerve ligation model; test: Mouse partial sciatic nerve ligation model (Seltzer model), von Frey test; assay type: in vivo, Crl: CD1 (ICR) mice; settings: oral administration seven days after ligation; 0.01 to 10 mg/kg depending on compound, pregabalin 10 mg/kg; 1, 2, 3 hours after administration; versus partial sciatic nerve ligation+distilled water group
Procedure: Using a partial sciatic nerve ligation model (Seltzer model) in mice by which neuropathic pain can be evaluated, the analgesic action of a cyclic amine derivative (I) or a pharmacologically acceptable salt thereof was investigated.
The mouse partial sciatic nerve ligation model was prepared in accordance with the method of Seltzer et al. (Malmberg et al., Pain, vol. 76, p. 215-222, 1998).
Crl: CD1 (ICR) mice (5 weeks old, male; from CHARLES RIVER LABORATORIES JAPAN, INC.) was anesthetized with sodium pentobarbital (70 mg/kg, intraperitoneal administration). The sciatic nerve at the femoral region of the right hind paw of each mouse was exposed and triply ligated tightly with silk suture of 8-0 (from NATSUME […]., LTD.) under a stereomicroscope so that only half thickness of the nerve was trapped in the ligature. A group of mice thus treated was designated as a partial sciatic nerve ligation group. A group of mice whose sciatic nerve was just exposed and not ligated was designated as a sham surgery group.
Evaluation of neuropathic pain (hereinafter referred to as von Frey test) was performed as follows. Mice were conditioned for at least one hour in an acrylic cage for measurement (from NATSUME […]. LTD.) placed on a wire net. Thereafter, using a filament (from North Coast Medical or neuroscience) which exerted a pressure of 0.16 g, the mice were subjected to mechanical tactile stimulus by applying the filament to the plantar surface of the right hind paw 3 times, each for 3 seconds, with an interval of 3 seconds.
Seven days after the sciatic nerve ligation surgery, the compound of Example 4, 6, 8, 10, 12, 14, 16, 18 or 20 (1 to 10 mg/kg for each of the compounds of Examples 4, 6 and 8, 0.1 to 10 mg/kg for each of the compounds of Examples 16 and 18, 0.01 to 10 mg/kg for each of the compounds of Examples 10, 12 and 14; and 0.1 to 1 mg/kg for the compound of Example 20) or pregabalin as a positive control (10 mg/kg; KEMPROTEC) was dissolved in distilled water and orally administered to mice of the partial sciatic nerve ligation group. The groups of the partial sciatic nerve ligation mice to which the compound of Example 4, 6, 8, 10, 12, 14, 16, 18 or 20 was administered were designated as a “partial sciatic nerve ligation+the compound of Example 4” group; a “partial sciatic nerve ligation+the compound of Example 6” group; a “partial sciatic nerve ligation+the compound of Example 8” group; a “partial sciatic nerve ligation+the compound of Example 10” group; a “partial sciatic nerve ligation+the compound of Example 12” group; a “partial sciatic nerve ligation+the compound of Example 14” group; a “partial sciatic nerve ligation+the compound of Example 16” group; a “partial sciatic nerve ligation+the compound of Example 18” group; and a “partial sciatic nerve ligation+the compound of Example 20” group, respectively. The partial sciatic nerve ligation mouse group to which pregabalin was administered, was designated as a “partial sciatic nerve ligation+pregabalin” group. Also, the partial sciatic nerve ligation mouse group to which distilled water was orally administered, was designated as a “partial sciatic nerve ligation+distilled water” group. The sham surgery mouse group to which distilled water was orally administered was designated as a “sham surgery+distilled water” group.
The von Frey test was carried out before oral administration of a test compound (pre-value), one hour, two hours and three hours after the oral administration of a test compound.
In the figures, the vertical axis represents the total score (mean value±standard error; n=5 to 6 in FIGS. 1 to 9) in the von Frey test. The higher numerical value indicates stronger pain. The horizontal axis represents time (hr) after administration of a test compound. […]

[2] = test system: fibromyalgia syndrome model rats; test: Fibromyalgia syndrome model in rats (acidic saline), allodynia by von Frey filament; assay type: in vivo, Crl: CD(SD) rat; settings: oral administration; Example 6 10 to 100 mg/kg, Example 18 1 to 100 mg/kg, pregabalin 10 mg/kg; 1 and 3 hours after administration; versus acidic saline+distilled water group
Source text: Using a fibromyalgia syndrome model in rats by which fibromyalgia syndrome can be evaluated, the analgesic action of a cyclic amine derivative (I) or a pharmacologically acceptable salt thereof was investigated.
To prepare a fibromyalgia syndrome model rat (Sluka et al., Journal of Pharmacology and Experimental Therapeutics, vol. 302, p. 1146-1150, 2002; Nagakura et al., Pain, vol. 146, p. 26-33, 2009; Sluka et al., Pain, vol. 146, p. 3-4, 2009), which is generally employed widely in basic research for fibromyalgia syndrome, acidic saline (100 μL) adjusted to pH4.0 was intramuscularly injected to the gastrocnemius muscle of the right hind paw of Crl: CD(SD) rat (6 to 7 weeks old, male; from CHARLES RIVER LABORATORIES JAPAN, INC.) under continuous inhalation anesthesia with isoflurane, twice (once in each day of Day 1 and Day 6, wherein Day 1 was the date on which the acidic saline was initially administrated). The rats thus prepared were raised in a breeding room controlled at an indoor temperature of 21 to 25° C. and an indoor humidity of 40 to 70% under the conditions of voluntary intake of food and water. In the same manner, rats to which physiological saline in place of acidic saline was intramuscularly injected were raised. The rats thus raised and not afflicted with fibromyalgia syndrome (“physiological saline+distilled water” group in FIG. 10 or 11) were also used in the experiment.
Seven days after the initial administration of acidic saline, allodynia in each rat was measured. […]
The compounds of Examples 6 and 18 (10 to 100 mg/kg for the compound of Example 6; 1 to 100 mg/kg for the compound of Example 18) were separately dissolved in distilled water and orally administered to fibromyalgia model rats (“acidic saline+the compound of Example 6” in FIG. 10 and “acidic saline+the compound of Example 18” in FIG. 11). […] In one hour and three hours after the oral administration, allodynia in individual rats was measured to evaluate an analgesic action. […]

| Structure (SMILES) | analgesic action, total score in the von Frey test [1] | allodynia, 50% response threshold (mean value of the right hind paw and the left hind paw) [2] |
| --- | --- | --- |
| CC(C)C[C@H](CN)CC(=O)O [pregabalin, reference compound] | statistically significant analgesic action | statistically significantly improved |
| CCCCOC(=O)Cn1ccnc1CCC(=O)N1CCC(N2CCOCC2)CC1 [Example 12, n-butyl 2-(2-(3-(4-morpholinopiperidin-1-yl)-3-oxopropyl)-1H-imidazol-1-yl)acetate hydrochloride] | statistically significant analgesic action | – |
| CCCCCCOC(=O)Cn1ccnc1CCC(=O)N1CCC(N2CCOCC2)CC1 [Example 16, n-hexyl 2-(2-(3-(4-morpholinopiperidin-1-yl)-3-oxopropyl)-1H-imidazol-1-yl)acetate hydrochloride] | statistically significant analgesic action | – |
| CCCCCCCCOC(=O)Cn1ccnc1CCC(=O)N1CCC(N2CCOCC2)CC1 [Example 20, n-octyl 2-(2-(3-(4-morpholinopiperidin-1-yl)-3-oxopropyl)-1H-imidazol-1-yl)acetate hydrochloride] | statistically significant analgesic action | – |
| CCCCCCCCOC(=O)CCn1ccnc1CCC(=O)N1CC[C@H](N(C)C)C1 [Example 8, n-octyl (S)-3-(2-(3-(3-(dimethylamino)pyrrolidin-1-yl)-3-oxopropyl)-1H-imidazol-1-yl)propanoate hydrochloride] | statistically significant analgesic action | – |
| CCCCCOC(=O)Cn1ccnc1CCC(=O)N1CCC(N2CCOCC2)CC1 [Example 14, n-pentyl 2-(2-(3-(4-morpholinopiperidin-1-yl)-3-oxopropyl)-1H-imidazol-1-yl)acetate hydrochloride] | statistically significant analgesic action | – |
| CCCCCCCOC(=O)CCn1ccnc1CCC(=O)N1CC[C@H](N(C)C)C1 [Example 6, n-heptyl (S)-3-(2-(3-(3-(dimethylamino)pyrrolidin-1-yl)-3-oxopropyl)-1H-imidazol-1-yl)propanote hydrochloride] | statistically significant analgesic action | statistically significantly improved |
| CCCCCCOC(=O)CCn1ccnc1CCC(=O)N1CC[C@H](N(C)C)C1 [Example 4, n-hexyl (S)-3-(2-(3-(3-(dimethylamino)pyrrolidin-1-yl)-3-oxopropyl)-1H-imidazol-1-yl)propanoate hydrochloride] | statistically significant analgesic action | – |
| CCCOC(=O)Cn1ccnc1CCC(=O)N1CCC(N2CCOCC2)CC1 [Example 10, n-propyl 2-(2-(3-(4-morpholinopiperidin-1-yl)-3-oxopropyl)-1H-imidazol-1-yl)acetate hydrochloride] | statistically significant analgesic action | – |
| CCCCCCCOC(=O)Cn1ccnc1CCC(=O)N1CCC(N2CCOCC2)CC1 [Example 18, n-heptyl 2-(2-(3-(4-morpholinopiperidin-1-yl)-3-oxopropyl)-1H-imidazol-1-yl)acetate hydrochloride] | statistically significant analgesic action | statistically significantly improved |
